In PMC6988309, “Preclinical efficacy for a novel tyrosine kinase inhibitor, ArQule 531 against acute myeloid leukemia” (Journal of Hematology & Oncology, 2020):
“And” between values parts separate entries of the source, which are not always exact repeats. Equal values may be shown once.

Tests used:
FLT3-WT = target: T1, FLT3-WT (Homo sapiens, UniProt P36888); experiment: Biochemical assay of recombinant kinases, FLT3-WT; details: recombinant kinase domain, 10 μmol/L ATP
T1 construct: measured using recombinant protein constructs of kinase domains (Reaction Biology); purchased Reaction Biology
T1 sequence (P36888 610-943 limits assumed): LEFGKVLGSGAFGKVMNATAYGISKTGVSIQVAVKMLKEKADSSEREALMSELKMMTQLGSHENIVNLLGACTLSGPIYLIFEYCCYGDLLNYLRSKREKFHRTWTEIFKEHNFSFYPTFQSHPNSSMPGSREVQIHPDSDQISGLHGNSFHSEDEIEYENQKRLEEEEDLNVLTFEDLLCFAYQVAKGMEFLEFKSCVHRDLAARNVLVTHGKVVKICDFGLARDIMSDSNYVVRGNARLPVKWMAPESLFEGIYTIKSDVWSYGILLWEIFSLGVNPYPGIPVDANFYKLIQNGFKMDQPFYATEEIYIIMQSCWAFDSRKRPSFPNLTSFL
Protocol: (§1) Biochemical inhibition of FLT3-WT and FLT3-ITD fusion was measured using recombinant protein constructs of kinase domains (Reaction Biology).

OCI-AML3 = experiment: MTS proliferation assay 72 h, OCI-AML3; assay type: cell-based; details: Homo sapiens, OCI-AML-3, read-out: Estimated absolute µM IC50 (95% CI), 4-parameter logistic model
Protocol: A total of 5000–30,000 cells from the lines above were treated in a 96-well plate for 72 h. CellTiter 96 Aqueous MTS reagent (Promega, Madison, WI) was added to cells followed by a 3-h incubation at 37 °C, 5% CO2. The absorbance was measured at 490 nm using DTX 880 plate reader and the half maximal inhibitory concentration (IC50) was calculated using GraphPad Prism 7 (GraphPad Software, La Jolla, CA) and SAS/STAT software (SAS v9.4 for Windows, SAS Institute, Inc., Cary, NC).

FLT3-ITD = FLT3-ITD (Homo sapiens, UniProt P36888, ITD); experiment: Biochemical assay of recombinant kinases, FLT3-ITD; details: recombinant kinase domain, 10 μmol/L ATP
FLT3-ITD, sequence (P36888 564-993, change not shown): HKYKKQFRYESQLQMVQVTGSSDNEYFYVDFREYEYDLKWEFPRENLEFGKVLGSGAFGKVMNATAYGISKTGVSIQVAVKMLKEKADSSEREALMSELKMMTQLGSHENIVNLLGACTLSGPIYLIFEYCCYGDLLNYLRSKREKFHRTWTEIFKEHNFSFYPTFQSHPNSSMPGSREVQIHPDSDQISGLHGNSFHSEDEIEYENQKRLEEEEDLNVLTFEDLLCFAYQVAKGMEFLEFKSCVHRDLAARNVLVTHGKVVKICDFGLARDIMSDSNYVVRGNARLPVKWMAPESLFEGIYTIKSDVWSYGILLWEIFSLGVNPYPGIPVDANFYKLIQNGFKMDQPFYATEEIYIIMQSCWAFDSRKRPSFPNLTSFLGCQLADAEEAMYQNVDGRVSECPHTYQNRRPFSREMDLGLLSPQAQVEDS
Protocol: as §1

BTK phosphorylation = experiment: Immunoblot of phospho-BTK; assay type: cell-based, human; details: AML cell lines; MOLM-13 1 µM for 1 hour (Figure S2)
Protocol: (§2) Cells were washed in ice-cold PBS then lysed in 1X Cell Lysis Buffer (CST) supplemented with proteinase and phosphatase inhibitors cocktail (Roche). Pierce BCA Protein Assay was used to quantify the protein lysates (Thermo Fisher Scientific, Waltham, MA). For Immunoblotting, 15–25 μg of protein lysate was prepared in 2X or 4X Laemmeli’s sample buffer (Bio-Rad Laboratories, Hercules, CA) and heated for 5 min at 100 °C. Samples were separated on 8% sodium dodecyl sulfate polyacrylamide gel and transferred onto nitrocellulose membrane (Bio-Rad Laboratories, Hercules, CA). The membranes were blocked for 1 h in Blocker BLOTTO Blocking Buffer (Thermo Fisher Scientific, Waltham, MA) or 5% non-fat milk followed by overnight incubation at 4 °C with primary antibody followed by HRP-conjugated secondary antibodies and visualized with chemiluminescent Pierce ECL Substrate (Thermo Fisher Scientific, Waltham, MA) on X-ray films.
(§3) Immunoblot analysis for MOLM-13, MV4-11, and OCI-AML3 AML cell lines (representative of 2-3 independent blots). […] Twenty to 25 μg of total protein lysate was loaded per lane.

Ba/F3 FLT3-ITD/D835Y = experiment: MTT proliferation assay 72 h, Ba/F3 FLT3-ITD/D835Y; assay type: cell-based, murine; details: Mus musculus, BaF3, read-out: Estimated absolute µM IC50 and 95% CI
Protocol: For the MOLM-13 resistant and the Ba/F3-FLT3-ITD/TKD cell lines, cells were treated for 72 h and cell viability was evaluated using MTT assay (Roche Diagnostics. Mannheim. Germany) according to the manufacturer’s instructions.

[1] = system: Ba/F3 FLT3-ITD pMIT-Empty
Protocol: CellTiter 96 Aqueous MTS reagent (Promega, Madison, WI) was added to cells followed by a 3-h incubation at 37 °C, 5% CO2. The absorbance was measured at 490 nm using DTX 880 plate reader and the half maximal inhibitory concentration (IC50) was calculated using GraphPad Prism 7 (GraphPad Software, La Jolla, CA) and SAS/STAT software (SAS v9.4 for Windows, SAS Institute, Inc., Cary, NC).

[2] = system: primary AML patient blasts; experiment: Colony-Forming Unit-Granulocyte and Macrophage (CFU-GM) assay; assay type: cell-based, human; details: 3 µM, colonies counted after 14 days
Protocol: Primary AML patient samples were treated and plated at 5000–10,000 cells in 1.1 ml methylcellulose supplemented with recombinant human stem cell factor, interleukin 3, granulocyte colony-stimulating factor, and granulocyte-macrophage colony-stimulating factor (MethoCult™, […] Technologies, Vancouver, Canada) per dish in duplicates. Colonies were counted after 14 days when using primary patient samples.
(§4) MTS proliferation assay using a human stroma co-culture assay. […] FLT3 wild-type (WT) samples (red) and FLT3-ITD (black). Colony-Forming Unit-Granulocyte and Macrophage (CFU-GM) assay. […] Number of colonies were counted after 14 days (c)

Ba/F3 FLT3-ITD = experiment: MTT proliferation assay 72 h, Ba/F3 FLT3-ITD; assay type: cell-based, murine; details: Mus musculus, read-out: Estimated absolute µM IC50 and 95% CI
Protocol: A total of 5000–30,000 cells from the lines above were treated in a 96-well plate for 72 h. CellTiter 96 Aqueous MTS reagent (Promega, Madison, WI) was added to cells followed by a 3-h incubation at 37 °C, 5% CO2. The absorbance was measured at 490 nm using DTX 880 plate reader and the half maximal inhibitory concentration (IC50) was calculated using GraphPad Prism 7 (GraphPad Software, La Jolla, CA) and SAS/STAT software (SAS v9.4 for Windows, SAS Institute, Inc., Cary, NC). For the MOLM-13 resistant and the Ba/F3-FLT3-ITD/TKD cell lines, cells were treated for 72 h and cell viability was evaluated using MTT assay (Roche Diagnostics. Mannheim. Germany) according to the manufacturer’s instructions.

[3] = set-up: method as in doi:10.1182/blood-2018-99-116338; details: dose escalation study; cited from earlier work
[4] = system: phosphorylation of Tyrosine 416 of the SFK; experiment: Immunoblot of phospho-SFK Tyr416; assay type: cell-based, human; details: MOLM-13, MV4-11, and OCI-AML3, 10-min treatment
Protocol: as §2, with “Cell lines were serum starved overnight followed by a 10-min treatment. Cells” for “Cells”
as §3

[5] = MTT proliferation assay 72 h, Ba/F3 lines with FLT3-ITD, TKD or both (all lines together); assay type: cell-based, murine; details: Mus musculus, BaF3, range across cell lines, read-out: IC50 range over the Ba/F3 FLT3 mutant cell lines
[6] = system: phosphorylated SYK (tyrosine 525/526); experiment: Immunoblot of phospho-SYK Tyr525/526; assay type: cell-based, human; details: MOLM-13, MV4-11, and OCI-AML3, 10-min treatment
Protocol: as §2, with “Cell lines were serum starved overnight followed by a 10-min treatment. Cells” for “Cells”
Fig. 3 ARQ 531 modulates AML pro-survival kinases. Immunoblot analysis for MOLM-13, MV4-11, and OCI-AML3 AML cell lines (representative of 2-3 independent blots). […] Twenty to 25 μg of total protein lysate was loaded per lane. GAPDH, HSP90, or β-Actin were used as loading controls. a, b Modulation of phosphorylated SFK and downstream targets in FLT3-ITD cell lines MOLM-13 and MV-11, respectively. c, d Modulation of phosphorylated SYK and BTK in all three cell lines

[7] = system: primary AML patient blasts; experiment: MTS proliferation assay, primary AML blasts co-cultured with HS5-GFP stroma cells, 96 h; assay type: cell-based, human; details: HS5-GFP co-culture
Description: For in vitro cytotoxicity experiments (Fig. 1b–d), repeated measures models were used to account for correlations among observations from the same experiment. The percentage of live cells was compared at each concentration with DMSO. […] Mixed effects models were used in experiments described in Additional file 1: Table S4 and Fig. 2c to account for correlations within a single patient. Outcome data were first log-transformed to stabilize variances and reduce skewness. For survival experiments (Figs. 5 and 6a), Kaplan-Meier curves were produced and group differences for Fig. 5 and assessed by the log-rank test and for Fig. 6a, p values have been adjusted for multiple comparisons using Holm’s procedure. p values from experiments with multiple endpoints were adjusted for multiple comparisons using either Holm’s procedure or Dunnett’s test (all comparisons against vehicle/DMSO).
as §4

In the case of `O=C(c1ccc(Oc2ccccc2)cc1Cl)c1c[nH]c2ncnc(N[C@@H]3CC[C@@H](CO)OC3)c12` [ARQ 531], the IC50 (FLT3-WT) is reported as 82 nM, the IC50 (OCI-AML3) is reported as 1.51 µM and the IC50 (FLT3-ITD) is reported as 330 nM. The “effect on BTK phosphorylation” value (BTK phosphorylation) was “potently inhibits BTK”, the IC50 (Ba/F3 FLT3-ITD/D835Y) was 7.55 µM and the IC50 [1] was 4240 nM and 2700 nM and 3480 nM. The “Estimated ratio of colony formation vs. DMSO” value [2] was 0.45, the IC50 (Ba/F3 FLT3-ITD) was 1.21 µM and the “treatment emergent adverse events” value [3] was “no reported treatment emergent adverse events”. For the same compound, the “inhibition of phosphorylation of Tyrosine 416 of the SFK” value [4] was “potently inhibited”, the IC50 [5] was 1200 to 7600 nM and the “effect on phosphorylated SYK (tyrosine 525/526)” value [6] was “inhibited the phosphorylated levels of SYK”. The “Estimated Ratio of proliferation versus vehicle (DMSO)” value (from here on “Estimated Ratio … (DMSO)”) ([7]; 0.005 µM) was 0.91, the “Estimated Ratio … (DMSO)” value ([7]; 0.01 µM) was 0.95 and the “Estimated Ratio … (DMSO)” value ([7]; 0.05 µM) was 0.92. The “Estimated Ratio … (DMSO)” value ([7]; 0.1 µM) was 0.9, the “Estimated Ratio … (DMSO)” value ([7]; 0.5 µM) was 0.69 and the “Estimated Ratio … (DMSO)” value ([7]; 1 µM) was 0.58. The “Estimated Ratio … (DMSO)” value ([7]; 5 µM) was 0.34, the “Estimated Ratio … (DMSO)” value ([7]; 10 µM) was 0.28 and the “Estimated Ratio … (DMSO)” value ([7]; 50 µM) was 0.09.
